Measurements: US20070128217A1 (priority 2003, published 2007)

Test system: antibodies in sera from SARS patients (sera 1a, 1b, 2, 6, 37, 62, London, SARS-yellow, SARS-green)
Assay type: binding, human
Parameters: Binding of serum 6 to linear peptides of protein X1 of SARS-CoV Urbani / Binding of serum 37 to linear peptides of protein X1 of SARS-CoV Urbani / Binding of serum 6 to looped/cyclic peptide (PEPSCAN-ELISA) / Binding of serum 37 to looped/cyclic peptide (PEPSCAN-ELISA) / Binding of serum 37 to looped/cyclic peptides of protein X1 of SARS-CoV Urbani / Binding of serum 6 to linear peptides of protein X2 / Binding of serum 37 to linear peptides of protein X2 / Binding of serum 37 to looped/cyclic peptides of protein X2 of SARS-CoV Urbani / Binding of serum 6 to linear peptides of protein M of SARS-CoV Urbani / Binding of serum 37 to linear peptides of protein M of SARS-CoV Urbani / Binding of serum 6 to looped/cyclic peptides of protein M of SARS-CoV Urbani / Binding of serum 37 to looped/cyclic peptides of protein M of SARS-CoV Urbani / Binding of serum 6 to linear peptides of protein X3 of SARS-CoV Urbani / Binding of serum 37 to linear peptides of protein X3 of SARS-CoV Urbani / Binding of serum 37 to looped/cyclic peptides of protein X3 of SARS-CoV Urbani / Binding of serum 6 to linear peptides of protein X4 of SARS-CoV Urbani / Binding of serum 37 to linear peptides of protein X4 of SARS-CoV Urbani / Binding of serum 37 to looped/cyclic peptides of protein X4 of SARS-CoV Urbani / Binding of serum 6 to linear peptides of protein X5 of SARS-CoV Urbani / Binding of serum 37 to linear peptides of protein X5 of SARS-CoV Urbani / Binding of serum 37 to looped/cyclic peptides of protein X5 of SARS-CoV Urbani / Binding of serum 6 to linear peptides of protein N of SARS-CoV Urbani / Binding of serum 37 to linear peptides of protein N of SARS-CoV Urbani / Binding of serum 6 to linear peptide (PEPSCAN-ELISA) / Binding of serum 1a to looped/cyclic peptides of protein N of SARS-CoV Urbani / Binding of serum 1b to looped/cyclic peptides of protein N of SARS-CoV Urbani / Binding of serum 2 to looped/cyclic peptides of protein N of SARS-CoV Urbani / Binding of serum 6 to looped/cyclic peptides of protein N of SARS-CoV Urbani / Binding of serum 37 to looped/cyclic peptides of protein N of SARS-CoV Urbani / Binding of serum 62 to looped/cyclic peptides of protein N of SARS-CoV Urbani / Binding of serum London to looped/cyclic peptides of protein N of SARS-CoV Urbani / Binding of serum SARS-green to looped/cyclic peptides of protein N of SARS-CoV Urbani: unit not given here

Sequence	Binding of serum 1a to linear peptides of protein X1 of SARS-CoV Urbani	Binding of serum 1a to looped/cyclic peptide (PEPSCAN-ELISA)	Binding of serum 1b to linear peptides of protein X1 of SARS-CoV Urbani	Binding of serum 1b to looped/cyclic peptide (PEPSCAN-ELISA)	Binding of serum 2 to linear peptides of protein X1 of SARS-CoV Urbani	Binding of serum 2 to looped/cyclic peptide (PEPSCAN-ELISA)	Binding of serum 6 to linear peptides of protein X1 of SARS-CoV Urbani	Binding of serum 6 to looped/cyclic peptide (PEPSCAN-ELISA)	Binding of serum 37 to linear peptides of protein X1 of SARS-CoV Urbani	Binding of serum 37 to looped/cyclic peptide (PEPSCAN-ELISA)
ATKIIALNKRWQLAL	0.7	0.6	0.6	0.4	0.6	0.5	0.7	0.5	0.8	0.6
AVFQSATKIIALNKR	0.8	0.4	0.6	0.4	0.6	0.6	0.8	0.7	0.7	0.6
FQSATKIIALNKRWQ	0.8	0.5	0.6	0.3	0.6	0.4	0.6	0.5	0.7	0.5

Same assay, conditions: not given

Sequence	Binding of serum 62 to linear peptides of protein X1 of SARS-CoV Urbani	Binding of serum 62 to looped/cyclic peptide (PEPSCAN-ELISA)	Binding of serum London to linear peptides of protein X1 of SARS-CoV Urbani	Binding of serum London to looped/cyclic peptide (PEPSCAN-ELISA)	Binding of serum SARS-green to linear peptides of protein X1 of SARS-CoV Urbani	Binding of serum SARS-green to looped/cyclic peptide (PEPSCAN-ELISA)	Binding of serum SARS-yellow to linear peptides of protein X1 of SARS-CoV Urbani	Binding of serum SARS-yellow to looped/cyclic peptide (PEPSCAN-ELISA)
ATKIIALNKRWQLAL	0.8	0.7	0.4	0.3	0.3	0.3	0.7	0.6
AVFQSATKIIALNKR	0.6	0.6	0.3	0.9	0.3	0.2	0.5	0.4
FQSATKIIALNKRWQ	0.7	0.5	0.3	0.2	0.4	0.3	0.4	0.2

Test system: rabbit serum obtained by immunizing a rabbit with the SARS-CoV strain Frankfurt 1
Assay type: binding
Parameters: Binding of a rabbit serum to linear peptides / Binding of a rabbit serum to looped peptides / Rabbit serum linear peptides / Rabbit serum looped peptides / Binding of a rabbit serum to linear peptides of protein N of SARS-CoV Urbani (Rabbit serum linear peptides) / Binding of a rabbit serum to looped/cyclic peptides of protein N of SARS-CoV Urbani (Rabbit serum looped peptides): unit not given here

Sequence	Recognition of the peptide by the rabbit serum	Rabbit serum linear peptides	Rabbit serum looped peptides	Binding of a rabbit serum to linear peptides	Binding of a rabbit serum to looped peptides
ATKIIALNKRWQLAL	recognized				
AVFQSATKIIALNKR	recognized				
CPSGTYEGNSPFNPL		0.5	0.7		
CWYLHEGHQTAAFRD		0.3	0.4		
FQSATKIIALNKRWQ	recognized				
GHLRMAGHPLGRCDI		0.4	0.7		
GHPLGRCDTKDLPKE		0.3	0.0		
GNSPFHPLADNKFAL		0.5	1.0		
GTHITMTTVYHITVS				2.1	0.4
HEGHQTAAFRDVLVV		0.2	0.8		
IARCWYLHEGHQTAA		0.7	0.3		
IIRGHLRMAGHPLGR		0.6	2.0		
IMRCWLCWKGKSKNP				0.1	0.3
LFAGTHITMTTVYHI				0.6	0.5
MMPTTLFAGTHITMT				0.6	0.6
MPTTLFAGTHITMTT				0.7	0.3
MVQTCTPNVTINCQD		0.5	0.2		
NASPASTVHATATIP				0.6	0.3
NSPFHPLADNKFALT		0.5	0.7		
PASTVHATATIPLQA				0.9	0.5
PTTLFAGTHITMTTV				0.8	0.4
SPASTVHATATIPLQ				1.0	0.4
STVHATATIPLQASL				0.6	0.5
TITVEELKQLLEQWN	recognized				
TLFAGTHITMTTVYH				0.7	0.5
TTLFAGTHITMTTVY				0.6	0.3
VEELKQLLEQWNLVI	recognized				
YEGNSPFHPLADNKF		0.6	0.5		
YLHEGHQTAAFRDVL		0.2	0.6		
